The values that follow come from US11535593B2, “3-phosphoglycerate dehydrogenase inhibitors and uses thereof” (Raze Therapeutics, Inc., priority 2016, dated 2022).

Structures are written as SMILES.

The first assay concerns the target T1, Full length (FL) 3-Phosphoglycerate Dehydrogenase (PHGDH) (Homo sapiens, UniProt O43175).
T1 construct: Full length (FL) 3-Phosphoglycerate Dehydrogenase (PHGDH) Diaphorase coupled assay (500 uM NAD)
T1 sequence (O43175 1-533): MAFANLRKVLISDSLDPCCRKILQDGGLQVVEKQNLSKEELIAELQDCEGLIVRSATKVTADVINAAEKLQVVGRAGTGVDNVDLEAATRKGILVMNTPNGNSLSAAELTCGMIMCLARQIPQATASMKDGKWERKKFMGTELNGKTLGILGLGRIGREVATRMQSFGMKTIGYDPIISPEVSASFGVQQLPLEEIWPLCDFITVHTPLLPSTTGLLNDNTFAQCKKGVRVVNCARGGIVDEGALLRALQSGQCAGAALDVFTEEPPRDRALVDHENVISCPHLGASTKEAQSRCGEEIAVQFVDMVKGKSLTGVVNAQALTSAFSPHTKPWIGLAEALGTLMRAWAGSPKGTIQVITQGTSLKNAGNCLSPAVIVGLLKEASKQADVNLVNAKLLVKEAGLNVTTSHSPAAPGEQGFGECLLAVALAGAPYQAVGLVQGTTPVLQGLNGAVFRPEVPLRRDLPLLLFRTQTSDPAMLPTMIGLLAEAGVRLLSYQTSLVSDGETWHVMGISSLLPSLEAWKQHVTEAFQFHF
The assay is described as follows: Full length (FL) PHGDH Diaphorase coupled assay (500 uM NAD). Format: biochemical. Particulars: 5 nM PHGDH, 30° C., 60 minutes. As for the experimental part:
Full length (FL) 3-Phosphoglycerate Dehydrogenase (PHGDH) Diaphorase coupled assay (500 uM NAD)
PHGDH activity was determined by detecting the NADH produced during the reaction. Diaphorase was used to catalyze the oxidation of NADH with the concomitant reduction of resazurin to the fluorescent product resorufin. Resorufin fluorescence quantitatively reflected the production of NADH by the PHGDH reaction. To drive the forward reaction, two enzymes in the serine synthesis pathway subsequent to PHGDH, Phosphoserine aminotransferase (PSAT1) and phosphoserine phosphatase (PSPH) were also added to the reaction.
With `CCC(C(=O)O)c1ccc([C@@H](CO)NC(=O)c2cc3c(Cl)c(Cl)c(OC)cc3n2C)cc1` (mixture of isomers) [Compound I-4, (±)-2-[4-[(1S)-1-[(4,5-dichloro-6-methoxy-1-methyl-indole-2-carbonyl)amino]-2-hydroxy-ethyl]phenyl]butanoic Acid], the IC50 (in general, the concentration at which inhibition is half-maximal) was in the range of 10 to 1000 nM.

Compound `CCC(C(=O)O)c1ccc([C@@H](CO)NC(=O)c2cc3c(Cl)c(OC)ccc3n2C)cc1` (mixture of isomers) [Compound I-5, (±)-2-[4-[(1S)-1-[(4-chloro-5-methoxy-1-methyl-indole-2-carbonyl)amino]-2-hydroxy-ethyl]phenyl]butanoic Acid] returned an IC50 of 10 to 1000 nM.

`CCC(C(=O)O)c1ccc([C@@H](CO)NC(=O)c2cc3c(Cl)c(Cl)ccc3n2C)cc1` (mixture of isomers) [Compound I-15, (±)-2-[4-[(1S)-1-[(4,5-dichloro-1-methyl-indole-2-carbonyl)amino]-2-hydroxy-ethyl]phenyl]butanoic Acid]: the IC50 fell in the range of 10 to 1000 nM.

Compound `CC(NC(=O)c1cc2c(Cl)c(Cl)ccc2n1C)c1ccc(CC(=O)O)cc1` (racemic) [Compound I-34, (±)-2-(4-(1-(4,5-Dichloro-1-methyl-1H-indole-2-carboxamido)ethyl)phenyl) acetic Acid] gave an IC50 of 10 to 1000 nM.

`Cn1c(C(=O)NC(c2ccc(C(=O)O)cc2)C(F)(F)F)cc2c(Cl)c(Cl)ccc21` (racemic) [Compound I-38, (±)-4-(1-(4,5-Dichloro-1-methyl-1H-indole-2-carboxamido)-2,2,2-trifluoroethyl)benzoic Acid] had an IC50 of 1000 to 5000 nM.

Regarding `CC(C)C(C(=O)O)c1ccc([C@@H](CO)NC(=O)c2cc3c(Cl)c(Cl)ccc3n2C)cc1` (mixture of isomers) [Compound I-56, (±)-2-[4-[(1S)-1-[(4,5-dichloro-1-methyl-indole-2-carbonyl)amino]-2-hydroxy-ethyl]phenyl]-3-methyl-butanoic Acid], the IC50 is 10 to 1000 nM.

The compound `CC(C)C(C(=O)O)c1ccc([C@@H](CO)NC(=O)c2cc3c(Cl)c(Cl)ccc3n2C)cc1` (single isomer, unassigned) [Compound I-54, (2R or 2S)-2-[4-[(1S)-1-[(4,5-dichloro-1-methyl-indole-2-carbonyl)amino]-2-hydroxy-ethyl]phenyl]-3-methyl-butanoic acid] gave an IC50 of 10 to 1000 nM.

`Cn1c(C(=O)N[C@H](CO)c2ccc(C(C)(C)C(=O)O)cc2)cc2c(Cl)c(Cl)ccc21` [Compound I-1] registered an IC50 of 10 to 1000 nM.

Regarding `COc1ccc2c(cc(C(=O)N[C@H](CO)c3ccc(C(C)(C)C(=O)O)cc3)n2C)c1Cl` [Compound I-2], the IC50 fell in the range of 10 to 1000 nM.

Compound `Cn1c(C(=O)N[C@H](CO)c2ccc(C3(C(=O)O)CC3)cc2)cc2c(Cl)c(Cl)ccc21` [Compound I-3] returned an IC50 of 10 to 1000 nM.

Consider `Cn1c(C(=O)NC(CF)c2ccc(C(=O)O)cc2)cc2c(Cl)c(Cl)ccc21` (stereo not shown) [Compound I-6], for which the IC50 was in the range of 10 to 1000 nM.

Consider `COc1cc2c(cc(C(=O)N[C@H](CO)c3ccc(C(=O)O)cc3C)n2C)c(Cl)c1Cl` [Compound I-7], for which the IC50 lay within 10 to 1000 nM.

Take `COc1cc2c(cc(C(=O)N[C@H](CO)c3ccc(C(=O)O)cc3C)n2C)c(Cl)c1C` [Compound I-8]: the IC50 is 10 to 1000 nM.

On to `COc1ccc2c(cc(C(=O)N[C@H](CO)c3ccc(CC(=O)O)cc3Cl)n2C)c1Cl` [Compound I-9, 2-{3-chloro-4-[(1S)-1-[(4-chloro-5-methoxy-1-methyl-1H-indol-2-yl)formamido]-2-hydroxyethyl]phenyl}acetic acid], for which the IC50 lay in the range of 10 to 1000 nM.

Turning to `Cn1c(C(=O)N[C@H](CO)c2ccc(CC(=O)O)cc2Cl)cc2c(Cl)c(Cl)ccc21` [Compound I-10, 2-{3-chloro-4-[(1S)-1-[(4,5-dichloro-1-methyl-1H-indol-2-yl)formamido]-2-hydroxyethyl]phenyl}-acetic acid], the IC50 was 10 to 1000 nM.

Regarding `COc1ccc2c(cc(C(=O)N[C@H](CO)c3ccc(C(=O)O)cc3C)n2C)c1Cl` [Compound I-11], the IC50 lay in the range of 10 to 1000 nM.

As for `COc1cc2c(cc(C(=O)N[C@H](CO)c3ccc(C(=O)O)cc3F)n2C)c(Cl)c1C` [Compound I-12], the IC50 was in the range of 10 to 1000 nM.

Take `COc1ccc2c(cc(C(=O)N[C@H](CO)c3ccc(C(=O)O)cc3F)n2C)c1Cl` [Compound I-13]: the IC50 was in the range of 10 to 1000 nM.

In the case of `CC(C(=O)O)c1ccc([C@@H](CO)NC(=O)c2cc3c(Cl)c(Cl)ccc3n2C)cc1` (stereo partly shown) [Compound I-14], the IC50 lay within 10 to 1000 nM.

In turn, `COc1cc2c(cc(C(=O)N[C@H](CO)c3ccc(C(=O)O)cc3Cl)n2C)c(Cl)c1C` [Compound I-16, 3-chloro-4-[(1S)-1-[(4-chloro-6-methoxy-1,5-dimethyl-1H-indol-2-yl)formamido]-2-hydroxyethyl]benzoic acid] registered an IC50 of 10 to 1000 nM.

Consider `COc1cc2c(cc(C(=O)N[C@H](CO)c3ccc(C(=O)O)cc3Cl)n2C)c(Cl)c1Cl` [Compound I-17, 3-chloro-4-[(1S)-1-[(4,5-dichloro-6-methoxy-1-methyl-1H-indol-2-yl)formamido]-2-hydroxyethyl]benzoic acid], for which the IC50 fell in the range of 10 to 1000 nM.

Turning to `Cc1cc(C(=O)O)ccc1[C@@H](CO)NC(=O)c1cc2c(Cl)c(Cl)ccc2n1C` [Compound I-18], the IC50 is 10 to 1000 nM.

In turn, `Cc1cc(CC(=O)O)ccc1[C@@H](CO)NC(=O)c1cc2c(Cl)c(Cl)ccc2n1C` [Compound I-19] displayed an IC50 of 10 to 1000 nM.

In turn, `COc1cc2c(cc(C(=O)N[C@H](CO)c3ccc(C(=O)O)cc3F)n2C)c(Cl)c1Cl` [Compound I-20] came in with an IC50 of 10 to 1000 nM.

Consider `COc1ccc2c(cc(C(=O)N[C@H](CO)c3ccc(C(=O)O)cc3Cl)n2C)c1Cl` [Compound I-21, 3-chloro-4-[(1S)-1-[(4-chloro-5-methoxy-1-methyl-1H-indol-2-yl)formamido]-2-hydroxyethyl]benzoic acid], for which the IC50 is 10 to 1000 nM.

For `Cn1c(C(=O)N[C@H](CO)c2ccc(C(=O)O)cc2F)cc2c(Cl)c(Cl)ccc21` [Compound I-22], the IC50 was in the range of 10 to 1000 nM.

Regarding `COc1ccc2c(cc(C(=O)N[C@H](CO)c3ccc(CC(=O)O)cc3)n2C)c1Cl` [Compound I-23, 2-{4-[(1S)-1-[(4-chloro-5-methoxy-1-methyl-1H-indol-2-yl)formamido]-2-hydroxyethyl]phenyl}acetic acid], the IC50 was 10 to 1000 nM.

For the compound `COc1cc2c(cc(C(=O)N[C@H](CO)c3ccc(CC(=O)O)cc3F)n2C)c(Cl)c1F` [Compound I-24], the IC50 is 10 to 1000 nM.

Compound `COc1cc2c(cc(C(=O)N[C@H](CO)c3ccc(CC(=O)O)cc3F)n2C)c(Cl)c1C` [Compound I-26] registered an IC50 of 10 to 1000 nM.

In turn, `Cn1c(C(=O)N[C@H](CO)c2ccc(C(=O)O)cc2Cl)cc2c(Cl)c(Cl)ccc21` [Compound I-27, 3-chloro-4-[(1S)-1-[(4,5-dichloro-1-methyl-1H-indol-2-yl)formamido]-2-hydroxyethyl]benzoic acid] registered a concentration for half-maximal inhibition (IC50) of 10 to 1000 nM.

In turn, `COc1cc2c(cc(C(=O)N[C@H](CO)c3ccc(CC(=O)O)cc3F)n2C)c(Cl)c1Cl` [Compound I-28, 2-{4-[(1S)-1-[(4,5-dichloro-6-methoxy-1-methyl-1H-indol-2-yl)formamido]-2-hydroxyethyl]-3-fluorophenyl}acetic acid] gave an IC50 of 10 to 1000 nM.

Take `Cn1c(C(=O)N[C@H](CO)c2ccc(CC(=O)O)cc2)cc2c(Cl)c(Cl)ccc21` [Compound I-29, 2-{4-[(1S)-1-[(4,5-dichloro-1-methyl-1H-indol-2-yl)formamido]-2-hydroxyethyl]phenyl}acetic acid]: the IC50 was 10 to 1000 nM.

With `CC(NC(=O)c1cc2c(Cl)c(Cl)ccc2n1C)c1ccc(C(=O)O)cc1F` (stereo not shown) [Compound I-30], the IC50 was 10 to 1000 nM.

As to `CC(NC(=O)c1cc2c(Cl)c(Cl)ccc2n1C)c1ccc(CC(=O)O)cc1F` (stereo not shown) [Compound I-31], the IC50 was 10 to 1000 nM.

`Cn1c(C(=O)N[C@H](CO)c2ccc(CC(=O)O)cc2F)cc2c(Cl)c(Cl)ccc21` [Compound I-32, 2-{4-[(1S)-1-[(4,5-dichloro-1-methyl-1H-indol-2-yl)formamido]-2-hydroxyethyl]-3-fluorophenyl}acetic acid] came in with an IC50 of 10 to 1000 nM.

The compound `CC(NC(=O)c1cc2c(Cl)c(Cl)ccc2n1C)c1ccc(C(=O)O)cc1Cl` (stereo not shown) [Compound I-33] came in with an IC50 of 10 to 1000 nM.

Turning to `Cn1c(C(=O)NC(C)(C)c2ccc(C(=O)O)cc2)cc2c(Cl)c(Cl)ccc21` [Compound I-35], the IC50 was 1000 to 5000 nM.

In the case of `Cn1c(C(=O)NC(CC2CC2)c2ccc(C(=O)O)cc2)cc2c(Cl)c(Cl)ccc21` (stereo not shown) [Compound I-36], the IC50 is 1000 to 5000 nM.

Regarding `Cn1c(C(=O)NCc2ccc(C(=O)O)cc2)cc2c(Cl)c(Cl)ccc21` [Compound I-37], the IC50 fell in the range of 1000 to 5000 nM.

The assay is the same for the next values; noted with them: read-out: FL Diaphorase 500 μM NAD (PHGDH activity inhibition, IC50), 5 nM PHGDH, 30° C., 60 minutes.
As for `CC(C)C(C(=O)O)c1ccc([C@@H](CO)NC(=O)c2cc3c(Cl)c(Cl)ccc3n2C)cc1` (single isomer, unassigned) [Compound I-55, (2S or 2R)-2-[4-[(1S)-1-[(4,5-dichloro-1-methyl-indole-2-carbonyl)amino]-2-hydroxy-ethyl]phenyl]-3-methyl-butanoic acid], the IC50 was in the range of 10 to 1000 nM.
